Experiments:
Assay in all cases: relative viability (nuclei count vs DMSO), 5 days (fraction); higher = more cells survive
[1] = compound: O[C@H]1CC[C@H](Nc2ncc3nc(Nc4c(F)cc(F)cc4F)n([C@H]4CCOC4)c3n2)CC1 [Tanzisertib] + COc1cc2c(Oc3ccc(NC(=O)C4(C(=O)Nc5ccc(F)cc5)CC4)cc3F)ccnc2cc1OCCCN1CCOCC1 [Foretinib] (partner 0.25 µM)
Method in brief: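 Dosing by pin tool came one day after lung cancer cell lines were seeded in 1536-well plates, using either one drug or a fixed anchor-drug dose plus five library-drug doses (not always all listed) in √10 steps. After 5 days, nuclei were counted on 4× images. Relative viability is treated-well nuclei count divided by vehicle-well nuclei count, and values are medians of duplicate plates.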

[2] = compound: C1CNCCC1C2=CC(=NN2)C3=CC=NC=C3
Method in brief: (§1)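 In 1536-well plates, lung cancer cell lines rested overnight at 37 °C before five library-drug doses (not always all listed), √10 apart, were pinned onto vehicle-anchored plates. Nuclei were counted with MetaXpress from 4× Hoechst images taken after 5 days without medium change. Viability compares treated-well with vehicle-well nuclei as a median over plates, and plates needed control CV below 25% plus at least one doubling to pass.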

[3] = compound: C[C@@H](N)c1ccc(C(=O)Nc2ccnc3[nH]ccc23)cc1
Method in brief: as §1

[4] = compound: O[C@H]1CC[C@H](Nc2ncc3nc(Nc4c(F)cc(F)cc4F)n([C@H]4CCOC4)c3n2)CC1 [Tanzisertib]
Method in brief: as §1

| Cell Line | relative viability ([1]; first compound 0.08 µM) | relative viability ([1]; first compound 0.253 µM) | relative viability ([1]; first compound 0.8 µM) | relative viability ([1]; first compound 2.53 µM) | relative viability ([1]; first compound 8 µM) | relative viability ([2]; 0.08 µM) | relative viability ([2]; 0.8 µM) | relative viability ([2]; 2.53 µM) | relative viability ([2]; 8 µM) | relative viability ([3]; 0.04 µM) | relative viability ([3]; 0.1265 µM) | relative viability ([3]; 0.4 µM) | relative viability ([3]; 1.265 µM) | relative viability ([3]; 4 µM) | relative viability ([4]; 0.08 µM) | relative viability ([4]; 0.253 µM) | relative viability ([4]; 0.8 µM) | relative viability ([4]; 2.53 µM) | relative viability ([4]; 8 µM) |
| --- | --- | --- | --- | --- | --- | --- | --- | --- | --- | --- | --- | --- | --- | --- | --- | --- | --- | --- | --- |
| NCI-H2170 | 1.02 | 1.01 | 0.954 | 1.06 | 0.984 | 0.834 | 0.978 | 0.939 | 0.984 | 1.1 | 0.992 | 1 | 0.926 | 0.936 | 1.11 | 0.96 | 0.992 | 0.977 | 0.887 |
| NCI-H522 | – | – | – | – | – | 0.819 | 1.05 | 0.983 | 0.98 | 0.935 | 0.865 | 1.11 | 0.875 | 0.805 | 1.11 | 1.01 | 1.02 | 0.956 | 0.702 |
| LCLC-97TM1 | 0.928 | 0.945 | 0.89 | 0.854 | 0.946 | 1.05 | 0.884 | 1.33 | 0.947 | 1.18 | 0.868 | 1.16 | 0.843 | 0.983 | 1.03 | 0.997 | 1.03 | 0.941 | 0.59 |
| NCI-H1299 | 1.08 | 1.1 | 1.09 | 1.15 | 1.23 | 1.04 | 1.05 | 0.978 | 0.976 | 0.967 | 0.985 | 0.963 | 0.955 | 0.862 | 1.06 | 1.03 | 1.01 | 0.998 | 1.08 |
| NCI-H3122 | 1.1 | 0.951 | 1.03 | 0.99 | 1.01 | 0.978 | 1.03 | 1.02 | 0.988 | 0.997 | 1.04 | 0.975 | 1 | 0.894 | 1.02 | 0.964 | 1.03 | 1 | 0.936 |
| NCI-H1395 | 1.06 | 0.941 | 0.96 | 0.945 | 0.966 | 0.861 | 0.733 | 1.07 | 0.882 | 0.889 | 0.924 | 0.949 | – | 0.828 | 0.986 | 1 | 0.96 | 1.03 | 0.715 |
| NCI-H2009 | 1.21 | 1.19 | 1.24 | 1.27 | 1.03 | 1.03 | 1.07 | 1.07 | 1 | 0.978 | 1.02 | 0.958 | 0.922 | 0.813 | 1.08 | 1.04 | 0.999 | 1.12 | 1.06 |
| NCI-H1651 | 0.875 | 0.951 | 0.794 | 0.996 | 0.539 | 0.956 | 1.01 | 0.989 | 0.967 | 1.02 | 1 | 1.07 | 1.13 | 1.09 | 1.03 | 1.01 | 0.933 | 0.886 | 0.92 |
| HARA | 0.817 | 0.925 | 0.86 | 0.889 | 0.74 | 1.05 | 0.898 | 1.16 | 0.928 | 1 | 0.929 | 1.11 | 0.689 | 0.779 | 1.12 | 1.12 | 0.932 | 1.05 | 0.725 |
| NCI-H1944 | 0.957 | 0.936 | 0.855 | 0.928 | 0.822 | 0.903 | 0.964 | 0.987 | 1.01 | 1.01 | 0.987 | 1.02 | 0.822 | 0.793 | 1.14 | 0.966 | 0.971 | 1 | 0.86 |
| NCI-H2347 | 1.12 | 0.792 | 0.95 | 1.25 | 0.629 | 1.01 | 0.869 | 1.08 | 1.12 | 0.971 | 0.995 | 1.14 | 0.816 | 0.956 | 1.11 | 0.956 | 1.06 | 1.08 | 0.965 |
| 201T | 1.2 | 1.08 | 1.12 | 1.11 | 0.978 | 0.97 | 0.993 | 0.983 | 0.938 | 1.01 | 0.971 | 1.01 | 0.976 | 1.12 | 1 | 0.969 | 0.997 | 0.933 | 0.898 |
| PC-14 | 1.05 | 0.983 | 0.933 | 0.951 | 0.61 | 1.01 | 1.06 | 1.13 | 0.987 | 0.906 | 0.979 | 0.995 | 0.707 | 0.779 | 1.06 | 1.07 | 0.996 | 0.984 | 0.546 |
| Calu-6 | 0.955 | 0.951 | 0.799 | 0.841 | 0.789 | 0.964 | 1.02 | 1.01 | 0.998 | 1.02 | 1.03 | 1.03 | 0.935 | 0.826 | 1.01 | 1.01 | 1.01 | 1.01 | 0.931 |
| NCI-H1703 | 0.406 | 0.371 | 0.359 | 0.262 | 0.261 | 0.874 | 1.2 | 1.01 | 0.94 | 0.794 | 0.863 | 0.757 | – | 0.906 | 1.14 | 0.899 | 0.843 | 0.717 | 0.719 |
| NCI-H1792 | – | – | – | – | – | 0.945 | 0.903 | 0.976 | 0.95 | 0.948 | 0.735 | 0.945 | 0.649 | 0.827 | 1.03 | 1.07 | 0.939 | 0.899 | 0.606 |
| HCC-44 | – | – | – | – | – | 0.999 | 1.05 | 1 | 0.999 | 0.95 | 0.988 | 1.03 | 0.927 | 0.941 | 0.985 | 1.11 | 1.07 | 1.04 | 1.11 |
| NCI-H1648 | – | – | – | – | – | 0.979 | 0.826 | 0.754 | 0.97 | 1.44 | 1.21 | 1.59 | 1.82 | 1.37 | 0.97 | 1.14 | 0.926 | 0.97 | 0.667 |

— the supplement of paper PMC10307832
